The record followed here is ChEMBL document CHEMBL1201862, “PubChem BioAssay data set” (2004).

Experiment in all cases: DTP human tumour cell line panel, 48 h
Experiment [1] relates to SN12C.
Experiment [2] has as its system UO-31.
The test system of experiment [3] is HCC 2998.
Experiment [4] deals with M14.
The test system of experiment [5] is SNB-75.
Experiment [6] deals with SF-295.
Experiment [7] concerns CCRF-CEM.
The subject of experiment [8] is NCI-H23.
Experiment [9] has as its system HOP-92.
Experiment [10] relates to OVCAR-3.
Experiment [11] concerns HL-60.
Experiment [12] deals with RXF 393.
Experiment [13] deals with EKVX.
Experiment [14] deals with NCI-H226.
Experiment [15] relates to SNB-19.
In experiment [16] the test system is NCI-H460.
In experiment [17] the test system is K562.
The subject of experiment [18] is UACC-257.
Experiment [19] relates to LOX IMVI.
Experiment [20] concerns IGROV-1.

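Compound exposure: 48 hours, 5 concentrations, 96-well plates. The concentration for 50% growth inhibition is given as GI50.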 Calls of active or inactive are those of the source. No stated cut-off is given here; in the data, active = GI50 up to about 1.1 µM and inactive = higher.

As for `CCn1c(O)c(C(=O)NC(C)c2ccc([N+](=O)[O-])cc2)c(=O)n(CC)c1=S` (stereo not given), the GI50 is 3.52 µM (inactive) in [1]; 1.92 µM (inactive) in [2]; 3.29 µM (inactive) in experiment [3]; 2.6 µM (inactive) in [4]; 2.16 µM (inactive) in experiment [5]; 1 µM (active) in [6]. Moreover, the GI50 in experiment [7] is 1.59 µM (inactive); in experiment [8], 1.77 µM (inactive); in experiment [9], 2.75 µM (inactive); in experiment [10] it was 2.16 µM (inactive); in [11] it was 2.28 µM (inactive); in [12], 3.11 µM (inactive). Further, the GI50 in experiment [13] is 3.23 µM (inactive); in experiment [14], 2.75 µM (inactive); in experiment [15], 1.93 µM (inactive); in [16] it was 2.41 µM (inactive); in [17], 0.951 µM (active); in experiment [18], 3.85 µM (inactive). The GI50 in experiment [19] is 2.31 µM (inactive); in experiment [20] it was 2.75 µM (inactive).
As for `O=C1C(=Cc2ccccc2[N+](=O)[O-])N=C(c2ccccc2)N1n1c(-c2ccccc2)nc2ccccc2c1=O`, the GI50 is 23 µM (inactive) in experiment [1]; 32.4 µM (inactive) in experiment [2]; 35.8 µM (inactive) in experiment [3]; 42.5 µM (inactive) in experiment [4]; 35.6 µM (inactive) in experiment [5]; 30.9 µM (inactive) in experiment [6]. Further, the GI50 in experiment [7] is 31 µM (inactive); in experiment [8] it was 20.2 µM (inactive); in [9], 15.2 µM (inactive); in [10], 29 µM (inactive); in experiment [11], > 10 µM (inactive); in experiment [12] it was 16.1 µM (inactive). Further, the GI50 was 33.4 µM (inactive) in [13]; 32.5 µM (inactive) in experiment [14]; 35.3 µM (inactive) in [15]; 31.3 µM (inactive) in experiment [16]; 31.8 µM (inactive) in experiment [17]; 24.8 µM (inactive) in experiment [18]. For the same compound, the results for the GI50 in experiment [19] and in experiment [20] were 29.4 µM (inactive) and 32.2 µM (inactive), respectively.
Take `COc1cc(Nc2nc3ccccc3nc2C(=O)O)cc(OC)c1OC`: the GI50 in experiment [1] was 74.1 µM (inactive); in experiment [2], 21.6 µM (inactive); in experiment [3], 69.3 µM (inactive); in [4] it was 73.6 µM (inactive); in experiment [5], 47.2 µM (inactive); in [6], 23.9 µM (inactive). Besides, the GI50 in experiment [7] was 83.2 µM (inactive); in experiment [8] it was 75.7 µM (inactive); in experiment [9], 25.9 µM (inactive); in experiment [10], 45.8 µM (inactive); in experiment [11], > 100 µM (inactive); in [12], > 100 µM (inactive). The GI50 in experiment [13] was 30.1 µM (inactive); in experiment [14] it was > 100 µM (inactive); in [15], 70.6 µM (inactive); in [16] it was 65.3 µM (inactive); in experiment [17], > 100 µM (inactive); in experiment [18], 87.3 µM (inactive). Moreover, the GI50 is 53 µM (inactive) in experiment [19] and 78.3 µM (inactive) in experiment [20].
On to `COC(=O)C1=C(O)CCCC(CCC(C)=O)=C1`, for which the GI50 was 41 µM (inactive) in experiment [1]; 39.9 µM (inactive) in [2]; > 100 µM (inactive) in experiment [3]; 47 µM (inactive) in [4]; 76.6 µM (inactive) in experiment [5]; > 100 µM (inactive) in [6]. Also, the GI50 in [7] is 9.71 µM (inactive); in experiment [8], 94.4 µM (inactive); in [9], 28.9 µM (inactive); in experiment [10], 48.8 µM (inactive); in experiment [11], 3.99 µM (inactive); in experiment [12], 33.4 µM (inactive). Also, the GI50 in experiment [13] was 83.2 µM (inactive); in experiment [14], > 100 µM (inactive); in experiment [15] it was > 100 µM (inactive); in experiment [16], 30.7 µM (inactive); in experiment [17] it was 31.3 µM (inactive); in experiment [18] it was 98.4 µM (inactive). In addition, the GI50 in experiment [19] is 38.2 µM (inactive); in experiment [20] it was 41.2 µM (inactive).
On to `C1CN(C23OC4(N5CCOCC5)C5C6CC(C7C6C4C72)C53)CCO1` (stereo not given), for which the GI50 in experiment [1] is > 100 µM (inactive); in [2] it was > 100 µM (inactive); in experiment [3], > 100 µM (inactive); in experiment [4], > 100 µM (inactive); in experiment [5], > 70.8 µM (inactive); in experiment [6] it was > 100 µM (inactive). The GI50 in experiment [7], in experiment [8], in experiment [9], in [10], in experiment [11] and in experiment [12] was > 100 µM (inactive) each time. Also, the GI50 in experiment [13], in experiment [14], in [15], in experiment [16], in experiment [17] and in experiment [18] was > 100 µM (inactive) in each case. In addition, the GI50 in experiment [19] and in experiment [20] was > 100 µM (inactive) each time.
Turning to `NCC1Nc2ccccc2[C@@H](O)C1O` (stereo not given in full), the GI50 in experiment [1], in experiment [2], in [3], in experiment [4], in experiment [5] and in [6] was > 100 µM (inactive) throughout. Also, the GI50 in experiment [7], in experiment [8], in experiment [9], in experiment [10], in experiment [11] and in [12] was > 100 µM (inactive) each time. In addition, the GI50 in [13], in experiment [14], in experiment [15], in experiment [16], in experiment [17] and in experiment [18] was > 100 µM (inactive) throughout. In addition, the GI50 in experiment [19] and in [20] was > 100 µM (inactive) throughout.
With `C=C1CC/C=C(\C)C(=O)C[C@@H]2[C@@H]1CC2(C)C` [BUDDLEDIN C], the GI50 is 1.59 µM (inactive) in [1]; 2.62 µM (inactive) in experiment [2]; 3.4 µM (inactive) in experiment [3]; 3.69 µM (inactive) in [4]; 10.6 µM (inactive) in experiment [5]; 15.5 µM (inactive) in experiment [6]. The GI50 in [7] is 0.0944 µM (active); in experiment [8], 5.2 µM (inactive); in experiment [9], 1.97 µM (inactive); in [10] it was 6.34 µM (inactive); in [11], 0.129 µM (active); in experiment [12], 1.85 µM (inactive). The GI50 in experiment [13] is 7.45 µM (inactive); in experiment [14], 14.8 µM (inactive); in [15], 12.6 µM (inactive); in experiment [16] it was 2.62 µM (inactive); in experiment [17] it was 1.82 µM (inactive); in experiment [18], 4.66 µM (inactive). Besides, the GI50 is 1.17 µM (inactive) in [19] and 3.26 µM (inactive) in experiment [20].
